# From US20100055032A1, “METHODS FOR […] IMAGING USING NANOP[…] AGENTS” (NanoScan Imaging LLC, priority 2001, published 2010)
# Where two headings read alike, the source gives them in different places.
# Legend:
# [1] = for Percent Uptake (%) Aorta / Percent Uptake (%) Brain / Percent Uptake (%) Cardiac / Percent Uptake (%) Liver / Percent Uptake (%) Portal Vein / Percent Uptake (%) Posterior Vena Cava / Percent Uptake (%) Spleen: pre-treatment = 100.0
# Excerpt: Animals used in this study were six (6) male New Zealand white rabbits obtained from UCD. At the time of initiation, the rabbits were adult in age and weighed approximately 2.69±0.06 kg. The animals were housed separately in cages and fed a cholesterol enriched diet (CED) (TestDiet®—Richmond, Ind.) dry laboratory diet. Filtered tap water was provided ad labium. The animals were acclimated for a minimum of 7 days prior to the start of the study.
# The study design comprised putting the rabbits on a CED for 5 weeks prior to the carotid overstretch procedure. At week 5, the carotid overstretch procedure was performed along with anticoagulant therapy (described below). The rabbits were then placed back on the CED with the anticoagulant therapy for an additional two (2) weeks. The rabbits were then anesthetized and Computer Tomography (CT) studies were performed. An iodinated nanoparticle, PH-50, having a mean diameter of 282 nm and a concentration of 15% (w/v) was evaluated in intact male rabbits with an average weight of 2.69±0.06 kg. Six (6) mL/kg of PH-50 was infused over ninety (90) minutes intravenously (IV) via an ear vein. The rabbits were then euthanized and necropsied after the 8 hour CT study.
# The CED diet consisted of Purina® 5321 (a standard high-quality rabbit chow that is widely available) supplemented with 2% cholesterol, 5% coconut oil and 0.5% sodium cholate. The CED was formulated by and purchased from TestDiet® (Richmond, Ind.).
# The carotid overstretch procedure was performed as follows: Rabbits were pretreated with an appropriate anticoagulant (heparin) prior to the procedure, and maintained on aspirin (20 mg/kg) for 14 days after the procedure. On the day of the procedure, the rabbits were boxed down and ventilated appropriately. The left carotid artery was exposed using standard techniques known in the art. A small puncture was made distal to the site to be overstretched, and a balloon catheter was placed in the artery. The vessel diameter was estimated from direct visualization. The balloon overstretch injury was performed using balloon diameters 30% greater than the baseline arterial diameter at the target areas three inflations of the balloon at approximately 6 atmospheric pressure for 30 seconds each, with a one-minute interval between inflations. Afterwards, the catheter was withdrawn and the rabbits allowed to recover for 14 days prior to the administration of PH-50. The animals were maintained on the CED and aspirin therapy during the 14-day recovery period. Fourteen (14) days following the overstretch procedure, the rabbits were anesthetized and maintained under anesthesia during PH-50 infusion and the CT scan procedures. […] In addition, whole body CT scans were made at contiguous 5 mm slices (at pretreatment, 4 hours and 8 hour studies).
# The computer tomography (CT) imaging was performed with a GE® Hi-Speed Computed Tomography Scanner (Milwaukee, Wis.). The CT images were stored as DICOM3 images in GE® optical disks, CD-Rom. The parameter for CT imaging were 1 mm contiguous slices at 120 kvp, 1.5 seconds at 150 mA. CT scans of the entire rabbit were performed (from rostral nasal area to pelvis at specified times).
# [2] = test system: atherosclerotic plaques; assay: Correlation of CT/Faxitron images with histopathology (Histopathology Correlation Scale); type: in vivo, New Zealand white rabbits; design: key to HCS score, renal images: 0=no correlation; 5=direct correlation
# Excerpt: The primary focus of this study was to study the potential uptake by atherosclerotic plaques of the compound PH-50. The spatial resolution of the CT scanner used in these experiments was approximately 0.15 mm and determination of plaque formation and PH-50 uptake were correlated with histopathology. The timetable for the schedule of CT studies for rabbit numbers 3081 and 3086 are outlined in Table 8.
# All sets of data were carefully harvested, analyzed and then correlated with histopathology. Images were collected, labeled as either “carotid”, “Lung”, “Spleen”, “Liver”, “Cardiac”, “Renal” or “Faxitron images of the carotids,” and then graded according to a Histopathology Correlation Scale (HCS), where 0=no correlation and 5=direct correlation.
# [3] = Particle size of the nanoparticle; type: physicochemical; settings: iodinated nanoparticle, 15% (w/v)
# [4] = Rabbit No. 3081, 18 mL/90 min IV infusion (900 mg/kg), 255 min
# [5] = Rabbit No. 3081, 18 mL/90 min IV infusion (900 mg/kg), 495 min
# [6] = Rabbit No. 3086, 18 mL/90 min IV infusion (900 mg/kg), 250 min
# [7] = Rabbit No. 3086, 18 mL/90 min IV infusion (900 mg/kg), 480 min
smiles,measurement,setting,value
"CCOC(=O)CCCCCOC(=O)c1c(I)c(NC(C)=O)c(I)c(NC(C)=O)c1I [PH-50, 6-ethoxy-6-oxohexy-3,5-bis(acetylamino)-2,4,6-triiodobenzoate]",Hounsfield Units (HU) Aorta,[1]; [4],56.5 HU
same,Hounsfield Units (HU) Brain,[1]; [4],49.1 HU
same,Hounsfield Units (HU) Cardiac,[1]; [4],136.2 HU
same,Hounsfield Units (HU) Liver,[1]; [4],169.3 HU
same,Hounsfield Units (HU) Portal Vein,[1]; [4],56.4 HU
same,Hounsfield Units (HU) Posterior Vena Cava,[1]; [4],95.3 HU
same,Hounsfield Units (HU) Spleen,[1]; [4],449.8 HU
same,Hounsfield Units (HU) Aorta,[1]; [5],89.3 HU
same,Hounsfield Units (HU) Brain,[1]; [5],36.8 HU
same,Hounsfield Units (HU) Cardiac,[1]; [5],138.8 HU
same,Hounsfield Units (HU) Liver,[1]; [5],110.6 HU
same,Hounsfield Units (HU) Portal Vein,[1]; [5],55.4 HU
same,Hounsfield Units (HU) Posterior Vena Cava,[1]; [5],87.8 HU
same,Hounsfield Units (HU) Spleen,[1]; [5],351.2 HU
same,Percent Uptake (%) Aorta,"[1]; Rabbit No. 3081, 255 min",84.0%
same,Percent Uptake (%) Brain,"[1]; Rabbit No. 3081, 255 min",164.2%
same,Percent Uptake (%) Cardiac,"[1]; Rabbit No. 3081, 255 min",383.3%
same,Percent Uptake (%) Liver,"[1]; Rabbit No. 3081, 255 min",383.9%
same,Percent Uptake (%) Portal Vein,"[1]; Rabbit No. 3081, 255 min",128.5%
same,Percent Uptake (%) Posterior Vena Cava,"[1]; Rabbit No. 3081, 255 min",141.0%
same,Percent Uptake (%) Spleen,"[1]; Rabbit No. 3081, 255 min",510.6%
same,Percent Uptake (%) Aorta,"[1]; Rabbit No. 3081, 495 min",132.7%
same,Percent Uptake (%) Brain,"[1]; Rabbit No. 3081, 495 min",123.1%
same,Percent Uptake (%) Cardiac,"[1]; Rabbit No. 3081, 495 min",250.8%
same,Percent Uptake (%) Liver,"[1]; Rabbit No. 3081, 495 min",250.8%
same,Percent Uptake (%) Portal Vein,"[1]; Rabbit No. 3081, 495 min",126.2%
same,Percent Uptake (%) Posterior Vena Cava,"[1]; Rabbit No. 3081, 495 min",129.9%
same,Percent Uptake (%) Spleen,"[1]; Rabbit No. 3081, 495 min",398.6%
same,Hounsfield Units (HU) Aorta,[1]; [6],64.0 HU
same,Hounsfield Units (HU) Brain,[1]; [6],31.3 HU
same,Hounsfield Units (HU) Cardiac,[1]; [6],220.2 HU
same,Hounsfield Units (HU) Liver,[1]; [6],189.4 HU
same,Hounsfield Units (HU) Portal Vein,[1]; [6],54.5 HU
same,Hounsfield Units (HU) Posterior Vena Cava,[1]; [6],96.5 HU
same,Hounsfield Units (HU) Spleen,[1]; [6],786.6 HU
same,Hounsfield Units (HU) Aorta,[1]; [7],24.1 HU
same,Hounsfield Units (HU) Brain,[1]; [7],34.7 HU
same,Hounsfield Units (HU) Cardiac,[1]; [7],200.3 HU
same,Hounsfield Units (HU) Liver,[1]; [7],98.2 HU
same,Hounsfield Units (HU) Portal Vein,[1]; [7],28.1 HU
same,Hounsfield Units (HU) Posterior Vena Cava,[1]; [7],58.6 HU
same,Hounsfield Units (HU) Spleen,[1]; [7],228.5 HU
same,Percent Uptake (%) Aorta,"[1]; Rabbit No. 3086, 250 min",186.6%
same,Percent Uptake (%) Brain,"[1]; Rabbit No. 3086, 250 min",81.3%
same,Percent Uptake (%) Cardiac,"[1]; Rabbit No. 3086, 250 min",320.1%
same,Percent Uptake (%) Liver,"[1]; Rabbit No. 3086, 250 min",384.2%
same,Percent Uptake (%) Portal Vein,"[1]; Rabbit No. 3086, 250 min",122.7%
same,Percent Uptake (%) Posterior Vena Cava,"[1]; Rabbit No. 3086, 250 min",204.9%
same,Percent Uptake (%) Spleen,"[1]; Rabbit No. 3086, 250 min",792.9%
same,Percent Uptake (%) Aorta,"[1]; Rabbit No. 3086, 480 min",70.3%
same,Percent Uptake (%) Brain,"[1]; Rabbit No. 3086, 480 min",90.1%
same,Percent Uptake (%) Cardiac,"[1]; Rabbit No. 3086, 480 min",291.1%
same,Percent Uptake (%) Liver,"[1]; Rabbit No. 3086, 480 min",199.2%
same,Percent Uptake (%) Portal Vein,"[1]; Rabbit No. 3086, 480 min",63.3%
same,Percent Uptake (%) Posterior Vena Cava,"[1]; Rabbit No. 3086, 480 min",124.4%
same,Percent Uptake (%) Spleen,"[1]; Rabbit No. 3086, 480 min",230.3%
same,adverse reactions during the infusion,"[1]; anesthetized rabbits, 6 mL/kg IV over 90 min",No adverse reactions
same,blood pressure or heart rate,"[1]; anesthetized rabbits, during infusion of 6 mL/kg IV over 90 min",no increase
same,uptake by atherosclerotic plaques,"[2]; CT with histopathology, cholesterol-fed rabbits",taken up by atherosclerotic plaques in the heart and lung
same,"HCS score, carotid images",[2]; left carotid of rabbit no. 3086,2
same,"HCS score, Faxitron images",[2]; mid region of the left carotid artery of rabbit no. 3086,3
same,"HCS score, cardiac images","[2]; plaques in the coronary arteries and myocardium of rabbit no. 3086, 4 and 8 hours post-injection",4
same,"HCS score, renal images","[2]; renal artery of rabbit no. 3086, area not submitted for histopathology",0
same,"HCS score, liver images","[2]; small arterioles of the liver of rabbit no. 3086, 4 hours post-injection",3
same,"HCS score, lung images","[2]; small arterioles of the lung, 4 hours post-injection",4
same,"HCS score, spleen images","[2]; small arterioles of the spleen of rabbit no. 3086, 4 hours post-injection",4
same,mean diameter,[3],282 nm
